# Target: human S1P1 receptors (Homo sapiens (Human), UniProt P21453)
# Assay: Human S1P1 Receptor Calcium FLIPR Antagonist Assay (HeLa Gα16 S1P1)
# Assay type: cell-based
# Details: relative antagonism vs probing agonist GNF-AC-1 at EC80, HeLa-S1P1/Gα16 cells
# Text: Human S1P1 Receptor Calcium FLIPR Antagonist Assay
# The assay measures intracellular changes of Ca^2+ mediated by the synthetic probing agonist 3-{[2-(2-Trifluoromethyl-biphenyl-4-yl)-benzo[b]thiophen-5-ylmethyl]-amino}-propionic acid (GNF-AC-1) in the HeLa-S1P1/Gα16 cell clone 1: HeLa (human cervix carcinoma, ATCC CCL2) cells stably expressing N-terminally myc-tagged human S1P1 receptors (GenBank™ accession No. NM_001400; UNIPROT P21453) and promiscuous Gα16 protein (GenBank™ accession number M63904, Swissprot P30679) are cultured at 37° C., 5% CO2, and 95% relative humidity. The cells are plated in 384 well black plates (10′000 cells per well). After 24 hours the cells are loaded with Fluo-4-AM (1.6 μM in HBSS and 2.5 mM probenicid) for 1 hour at 37° C. After washing, the cells are transferred to the FLIPR. The test compounds are added at different concentrations (≦100 μM) in HBSS in the presence of 0.1% BSA and changes in fluorescence are recorded (indication of agonism). The probing agonist is added 20-30 minutes afterwards to the wells at a concentration giving 80% of the maximal activity (EC80). After each addition, time points are collected as follows: 20 time points (2 seconds) before the addition of the agonist (Fmin) and 60 time points (1 or 2 seconds) after the addition of the probing agonist. This allows the determination of the maximal fluorescence (Fmax). The ratio (Fmax−Fmin)/Fmin is plotted against the log of the concentration of the test compounds and the IC50 (relative antagonism) is calculated using the XLfit-4 software. […] A concentration-response curve of the probing agonist is determined on each plate in parallel.
# human S1P1 receptors, sequence (P21453 whole entry): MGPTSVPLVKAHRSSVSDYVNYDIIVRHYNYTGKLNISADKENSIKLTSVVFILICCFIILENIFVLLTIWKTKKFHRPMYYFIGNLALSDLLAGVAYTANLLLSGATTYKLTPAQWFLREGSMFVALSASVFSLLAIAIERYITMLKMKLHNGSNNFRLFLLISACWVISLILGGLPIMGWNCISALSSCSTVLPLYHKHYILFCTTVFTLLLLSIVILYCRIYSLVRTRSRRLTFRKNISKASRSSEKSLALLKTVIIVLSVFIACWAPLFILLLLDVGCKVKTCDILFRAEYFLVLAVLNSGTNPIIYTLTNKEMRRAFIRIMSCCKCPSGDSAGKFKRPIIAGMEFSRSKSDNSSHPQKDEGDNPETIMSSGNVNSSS
row,SMILES,IC50
1,"Cc1cc(C(C)Nc2cccc(CN3CC(C(=O)O)C3)c2)ccc1Cl (stereo not shown) [Example 1, 1-{3-[1-(4-Chloro-3-methyl-phenyl)-ethylamino]-benzyl}-azetidine-3-carboxylic acid]",14.7 nM
2,"CCC(Nc1cccc(CN2CC(C(=O)O)C2)c1)c1ccc(Cl)c(C)c1 (stereo not shown) [Example 2, 1-{3-[1-(4-Chloro-3-methyl-phenyl)-propylamino]-benzyl}-azetidine-3-carboxylic acid]",3.5 nM
3,CC[C@@H](Nc1cccc(CN2CC[C@@H](C(=O)O)C2)c1)c1ccc(Cl)c(C)c1 [Example 11],4 nM
4,"CCC(c1cccc(N[C@H](CC)c2ccc(Cl)c(C)c2)c1)N1CC(C(=O)O)C1 (stereo partly drawn) [Example 13, 1-(1-{3-[(R)-1-(4-Chloro-3-methyl-phenyl)-propylamino]-phenyl}-propyl)-azetidine-3-carboxylic acid]",4.7 nM
5,"CCC(Nc1cc(C)cc(CN2CC[C@@H](C(=O)O)C2)c1)c1ccc(Cl)c(C)c1 (stereo partly drawn) [Example 15, (R)-1-{3-[1-(4-Chloro-3-methyl-phenyl)-propylamino]-5-methyl-benzyl}-pyrrolidine-3-carboxylic acid]",2.3 nM
6,"CC[C@@H](Nc1cccc(CN2CC(C(=O)O)C2)c1)c1ccc2c(Cl)cccc2c1 [Example 20, 1-{3-[(R)-1-(5-Chloro-naphthalen-2-yl)-propylamino]-benzyl}-azetidine-3-carboxylic acid]",2 nM
7,"CC[C@@H](Nc1cccc(CN2CC(C(=O)O)C2)c1F)c1ccc(Cl)c(C)c1 [Example 24, 1-{3-[(R)-1-(4-Chloro-3-methyl-phenyl)-propylamino]-2-fluoro-benzyl}-azetidine-3-carboxylic acid]",1.9 nM
8,"CC[C@@H](Nc1cccc(CN2CC[C@@H](C(=O)O)C2)c1F)c1ccc(Cl)c(C)c1 [Example 25, (R)-1-{3-[(R)-1-(4-Chloro-3-methyl-phenyl)-propylamino]-2-fluoro-benzyl}-pyrrolidine-3-carboxylic acid]",3.3 nM
9,"CC[C@@H](Nc1cc(CN2CC(C(=O)O)C2)ccc1F)c1ccc(Cl)c(C)c1 [Example 26, 1-{3-[(R)-1-(4-Chloro-3-methyl-phenyl)-propylamino]-4-fluoro-benzyl}-azetidine-3-carboxylic acid]",2.1 nM
10,"CC[C@@H](Nc1cc(CN2CC[C@@H](C(=O)O)C2)ccc1F)c1ccc(Cl)c(C)c1 [Example 27, (R)-1-{3-[(R)-1-(4-Chloro-3-methyl-phenyl)-propylamino]-4-fluoro-benzyl}-pyrrolidine-3-carboxylic acid]",10.6 nM
11,"CCc1ccc(N[C@H](CC)c2ccc(Cl)c(C)c2)cc1CN1CC[C@@H](C(=O)O)C1 [Example 36, (R)-1-{5-[(R)-1-(4-Chloro-3-methyl-phenyl)-propylamino]-2-ethyl-benzyl}-pyrrolidine-3-carboxylic acid]",3.7 nM
12,"CCc1ccc(N[C@H](CC)c2ccc(Cl)c(C)c2)cc1CN1CC(C(=O)O)C1 [Example 37, 1-{5-[(R)-1-(4-Chloro-3-methyl-phenyl)-propylamino]-2-ethyl-benzyl}-azetidine-3-carboxylic acid]",2.5 nM

# The remaining compounds from weak to strong by IC50, led by results:
row,IC50,SMILES
1,1.9 nM,"CC[C@@H](Nc1cccc(CN2CC(C(=O)O)C2)c1)c1cc(C)c(Cl)c(C)c1 [Example 18, 1-{3-[(R)-1-(4-Chloro-3,5-dimethyl-phenyl)-propylamino]-benzyl}-azetidine-3-carboxylic acid]"
2,1.8 nM,"CCc1ccc(N[C@@H](c2ccc(Cl)c(C)c2)C(F)(F)F)cc1CN1CC(C(=O)O)C1 [Example 35, 1-{5-[(S)-1-(4-Chloro-3-methyl-phenyl)-2,22-trifluoro-ethylamino]-2-ethyl-benzyl}-azetidine-3-carboxylic acid]"
3,1.6 nM,"CCC(Nc1ccc(C)c(C(C)N2CC(C(=O)O)C2)c1)c1ccc(Cl)c(C)c1 (stereo not shown) [Example 10, 1-(1-{5-[1-(4-Chloro-3-methyl-phenyl)-propylamino]-2-methyl-phenyl}-ethyl)-azetidine-3-carboxylic acid]"
4,1.6 nM,"Cc1cc(C(Nc2cccc(CN3CC(C(=O)O)C3)c2)C(C)C)ccc1Cl (stereo not shown) [Example 17, 1-{3-[1-(4-Chloro-3-methyl-phenyl)-2-methyl-propylamino]-benzyl}-azetidine-3-carboxylic acid]"
5,1.5 nM,"CC[C@@H](Nc1cccc(CN2CC(C)(C(=O)O)C2)c1)c1ccc(Cl)c(C)c1 [Example 8, 1-{3-[(R)-1-(4-Chloro-3-methyl-phenyl)-propylamino]-benzyl}-3-methyl-azetidine-3-carboxylic acid]"
6,1.5 nM,"CCC(Nc1cccc(CN2CC[C@@H](C(=O)O)C2)c1C)c1ccc(Cl)c(C)c1 (stereo partly drawn) [Example 14, (R)-1-{3-[1-(4-Chloro-3-methyl-phenyl)-propylamino]-2-methyl-benzyl}-pyrrolidine-3-carboxylic acid]"
7,0.9 nM,"CC[C@@H](Nc1cccc(CN2CC(C(=O)O)C2)c1)c1ccc(Cl)c(C)c1 [Example 3, 1-{3-[(R)-1-(4-Chloro-3-methyl-phenyl)-propylamino]-benzyl}-azetidine-3-carboxylic acid]"
8,0.8 nM,"CC[C@@H](Nc1ccc(C)c(CN2CC(C(=O)O)C2)c1)c1ccc(Cl)c(C)c1 [Example 22, 1-{5-[(R)-1-(4-Chloro-3-methyl-phenyl)-propylamino]-2-methyl-benzyl}-azetidine-3-carboxylic acid]"
9,0.8 nM,"CC[C@@H](Nc1ccc(C)c(CN2CC(C)(C(=O)O)C2)c1)c1ccc(Cl)c(C)c1 [Example 28, 1-{5-[(R)-1-(4-Chloro-3-methyl-phenyl)-propylamino]-2-methyl-benzyl}-3-methyl-azetidine-3-carboxylic acid]"
10,0.8 nM,"CC[C@@H](Nc1ccc(Cl)c(CN2CC[C@@H](C(=O)O)C2)c1)c1ccc(Cl)c(C)c1 [Example 38, (R)-1-{2-Chloro-5-[(R)-1-(4-chloro-3-methyl-phenyl)-propylamino]-benzyl}-pyrrolidine-3-carboxylic acid]"
11,0.8 nM,"Cc1cc([C@H](Nc2cccc(CN3CC(C(=O)O)C3)c2C)C(F)(F)F)ccc1Cl [Example 39, 1-{3-[(S)-1-(4-Chloro-3-methyl-phenyl)-2,2,2-trifluoro-ethylamino]-2-methyl-benzyl}-azetidine-3-carboxylic acid]"
12,0.7 nM,"CC[C@@H](Nc1cc(CN2CCC(C)(C(=O)O)C2)c(Cl)cn1)c1ccc(Cl)c(C)c1 (single isomer, unassigned) [Example 87]"
13,0.5 nM,"CC[C@@H](Nc1cccc(C(C)N2CC(C(=O)O)C2)c1)c1ccc(Cl)c(C)c1 (stereo partly drawn) [Example 6, 1-(1-{3-[(R)-1-(4-Chloro-3-methyl-phenyl)-propylamino]-phenyl}-ethyl)-azetidine-3-carboxylic acid]"
14,0.4 nM,"CCC(Nc1cc(C)cc(CN2CC(C(=O)O)C2)c1)c1ccc(Cl)c(C)c1 (stereo not shown) [Example 9, 1-{3-[1-(4-Chloro-3-methyl-phenyl)-propylamino]-5-methyl-benzyl}-azetidine-3-carboxylic acid]"
15,0.4 nM,"Cc1cc([C@H](Nc2ccc(C)c(CNCCC(=O)O)c2C)C(F)(F)F)ccc1Cl [Example 40, 3-{3-[(S)-1-(4-Chloro-3-methyl-phenyl)-2,2,2-trifluoro-ethylamino]-2,6-dimethyl-benzylamino}-propionic acid]"
16,0.2 nM,"CCC(Nc1ccc(C)c(CN2CC(C(=O)O)C2)c1)c1ccc(Cl)c(C)c1 (stereo not shown) [Example 4, 1-{5-[1-(4-Chloro-3-methyl-phenyl)-propylamino]-2-methyl-benzyl}-azetidine-3-carboxylic acid]"
